How the values were obtained:
[1] = biological target: T1, FKBP-GSK3β-GFP (Homo sapiens, UniProt P62942); assay: Sub-cellular localization of FKBP-GSK3β-GFP with FRB(TLW)-NES and FRB(KTF)-NLS in COS1 cells; type: cell-based; details: 10 nM, 1 hour
T1 construct: expressed in transfected cells; host or cells: COS1 cells
Description: COS1 cells were electroporated with 1 μg pS-FKBP-GSK3β-GFP, 1 μg of the ‘exporter’ pBJ5-FRB(TLW)-Exp-HA containing a nuclear export sequence derived from the rev protein of Human Immunodeficiency Virus and 3 μg of the ‘importer’ pBJ5-FRB(KTF)-Imp with a nuclear localization sequence from SV40 Large T antigen. Cells were plated on autoclaved coverslips and incubated 36 hours followed by 1 hour of rapalog treatment (10 nM). Cells were fixed 10 minutes in 4% paraformaldeyde/PBS at 4° C. and mounted for microscopy with DAPI to visualize the nucleus. Microscopy was perfomed with a Leica confocal microscope and Leica software.

[2] = tested on: mutant FRBs; assay: SeAP transcriptional switch assay, panel of FRB mutants at 2095, 2098, 2101; type: cell-based, human; details: Phe at 2101
Description: All FRB mutants were prepared by the Quikchange mutagenesis method (Stratagene) using protocols provided by the manufacturer. Briefly, PCR reactions containing the parent plasmid pBJ5-FRB-VP16-HA or pBJ5-FRB*-VP16-HA and overlapping oligonucleotides containing the relevant base changes were performed with Pfu polymerase (Stratagene, San Diego, Calif.). PCR reactions were digested with the methylation sensitive restriction endonuclease Dpn1 to eliminate the parent plasmid and the reaction was transformed in XL10-Gold Ultracompetent E. coli (Stratagene).
Electroporation details are available upon request. Cells were immediately aliquoted to 2 or 3×96 well plates with flat bottoms. […] Data was analysed with Softmax Pro (Molecular Devices), Microsoft Excel and Prism 3 (GraphPad Software).

T1 sequence (P62942 whole entry): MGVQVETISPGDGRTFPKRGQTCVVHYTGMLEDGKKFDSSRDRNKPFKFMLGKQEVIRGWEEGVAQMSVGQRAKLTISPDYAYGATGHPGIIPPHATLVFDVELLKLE

- sub-cellular localization of GSK3β [1]: localized to the cytoplasm
- binding to mutant FRBs with Phe substituted at amino acid 2101 [2]: little or no binding
Substance: C16-(S)Butylsulfonylrapamycin [C16-BSrap, reference compound]

Reference: patent US20050214738A1, “Conditional allele system” (priority 2003, published 2005)
